In patent US9512091B2, “Compositions and methods for the modulation of specific amidases for N-acylethanolamines for use in the therapy of inflammatory diseases” (Epitech Group S.r.l., priority 2012, dated 2016):

Key:
hepatic esterases = details: prior-art statement on poor selectivity; cited from earlier work
[1] = Solubility of the prepared product; type: physicochemical; details: for solubility / Solubility in ethanol: ethanol; for solubility: organic solvent or mixture
[2] = target: T1, NAAA (N-Acylethanolamine Hydrolizing Acid Amidase) (Homo sapiens, UniProt Q02083); assay: Activity on the NAAA enzyme, membranes of HEK-NAAA cells, [14C]PEA hydrolysis; type: biochemical; details: HEK-NAAA membranes 50 μg/sample, [14C]PEA 20 μM, 30 min at 37° C.; mean of 10 experiments; read-out: Inhibition of NAAA IC50 (after 30 min incubation)
T1 construct: expressed in transfected cells; host or cells: HEK cells permanently transfected with NAAA (HEK-NAAA); 12000 g membrane fraction
T1 sequence (Q02083 29-359): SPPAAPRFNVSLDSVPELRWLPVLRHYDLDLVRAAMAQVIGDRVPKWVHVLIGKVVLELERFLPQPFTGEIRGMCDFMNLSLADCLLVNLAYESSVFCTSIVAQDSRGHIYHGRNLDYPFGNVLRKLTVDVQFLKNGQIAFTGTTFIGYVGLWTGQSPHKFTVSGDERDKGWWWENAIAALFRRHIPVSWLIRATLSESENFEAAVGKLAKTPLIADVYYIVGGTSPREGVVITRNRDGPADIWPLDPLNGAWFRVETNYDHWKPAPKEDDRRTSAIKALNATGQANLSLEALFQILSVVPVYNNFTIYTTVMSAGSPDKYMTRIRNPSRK
Procedure: The effect of the samples being analysed on the enzymatic activity of the NAAA (N-Acylethanolamine Hydrolizing Acid Amidase) was determined on suitably permanently transfected cellular lines (HEK-NAAA). The cells were homogenised using TRIS-HCl 20 Mm (pH 7.4) by means of dounce. Subsequently a mild centrifugation (10 min, 800 g, 4° C.) was carried out for removing the cellular debris. The cellular fraction containing the membranes was obtained by means of subsequent centrifugation (30 min, 12000 g, 4° C.). The membranes (50 μg/sample) were incubated for 30 min at 37° C. with [^14C]PEA (20 μM; 10000 cpm/sample; 5 nCi/nmols) in presence and in absence of the substances to be tested. The incubation was blocked by adding 2 volumes of CHCl3/CH3OH (1:1/v:v). The radioactivity associated to the aqueous phase containing [^14C]Ethanolamine (produced by the hydrolysis of the radioactive substrate) was determined by means of β-Counter (Beckman Counter, LS6500 Scintillation Counters, Milan).

[3] = tested on: edema of the legs induced by sub-plantar carrageenan; assay: Carrageenan edema of the legs, plantar volume by plethysmometer; type: in vivo, rat; details: for increase of plantar volume in percentage with respect to carrageenan alone (carrageenan=100): rat, PEA 33 μM/Kg, PEA-OXA (30 mg/Kg) μM/Kg, 5 experiments
Procedure: The experimental model of edema of the legs is induced through sub-plantar injection of a carrageenan solution (containing 50 μl of sterile saline solution and 1% of carrageenan) in the right leg of the animal (rat).
At specific time intervals the plantar volume is measured by means of a plethysmometer (Ugo Basile, Milan, Italy). The increase of the plantar volume is evaluated as the difference between the value obtained in the specific time intervals and the volume at the basal (time 0) measured immediately before the administration of carrageenan.
The data obtained from 5 different experiments, each involving 10 animals per group, were tabled (tab 2) in percentage with respect to the animals treated with carrageenan alone (carrageenan=100): […]

NC(=O)c1cccc(-c2cccc(OC(=O)NC3CCCCC3)c2)c1 [URB597, cyclohexyl carbamic acid 3′-carbamoyl-biphenyl-3-yl ester]
inhibition of hepatic esterases (hepatic esterases): more than 40%

CCCCCCCCCCCCCCCC1=N[C@H](C)CO1 [Example 11, 2-pentadecyl-4(R)-methyl-2-oxazoline]
solubility [1]: > 10000 µg/mL
Solubility in water [1]: poorly soluble

CCCCCCCCCCCCCCCCCC(=O)NCCO [SEA, Stearylethanolamide, reference compound]
IC50 [2]: > 50 µM

CCCCCCCCCCCCCCCCC1=NCCO1 [Example 8, 2-hexadecyl-2-oxazoline]
melting point: 49 to 51 °C
solubility [1]: > 10000 µg/mL
Solubility in water [1]: poorly soluble

CCCCCCCCCCCCCCCC1=NCCCO1 [Example 15, 2-pentadecyl-2-oxazine]
Solubility in ethanol [1]: > 10000 µg/mL
Solubility in water [1]: poorly soluble

CCCCCCCCCCCCCCCC1=NC(C(=O)OC)CO1 (centres unmarked) [Example 14, 2-pentadecyl-4-methyloxycarbonyl-2-oxazoline]
solubility [1]: > 10000 µg/mL
Solubility in water [1]: poorly soluble

CCCCCCCCCCCCCCCC1=NC(C)(C)CO1 [Example 5, 2-pentadecyl-4,4-dimethyl-2-oxazoline]
solubility [1]: > 10000 µg/mL
Solubility in water [1]: poorly soluble

CCCCCCCCCCCCCCCC(=O)NCCO [PEA, Palmitoylethanolamide, reference compound]
increase of plantar volume in percentage with respect to carrageenan alone (carrageenan=100) ([3]; 30 min): 89.2 ± 2.2%
increase of plantar volume in percentage with respect to carrageenan alone (carrageenan=100) ([3]; 1 hr): 82 ± 1.8%
increase of plantar volume in percentage with respect to carrageenan alone (carrageenan=100) ([3]; 2 hrs): 78.3 ± 1.6%
increase of plantar volume in percentage with respect to carrageenan alone (carrageenan=100) ([3]; 3 hrs): 73.9 ± 2.1%
increase of plantar volume in percentage with respect to carrageenan alone (carrageenan=100) ([3]; 4 hrs): 70.1 ± 1.9%
increase of plantar volume in percentage with respect to carrageenan alone (carrageenan=100) ([3]; 5 hrs): 54.5 ± 0.63%
increase of plantar volume in percentage with respect to carrageenan alone (carrageenan=100) ([3]; 6 hrs): 32.9 ± 0.41%
IC50 [2]: > 50 µM

CCCCCCCCCCCCCCCC1=NCCS1 [Example 16, 2-pentadecyl-2-thiazoline]
solubility [1]: > 10000 µg/mL
Solubility in water [1]: poorly soluble

CCCCCCCCCCCCCCCC1=NC(CO)CO1 (centres unmarked) [Example 13, 2-pentadecyl-4-hydroxymethyl-2-oxazoline]
solubility [1]: > 10000 µg/mL
Solubility in water [1]: poorly soluble

CCCCCCCCCCCCCCCC1=N[C@@H](C)CO1 [Example 12, 2-pentadecyl-4(S)-methyl-2-oxazoline]
solubility [1]: > 10000 µg/mL
Solubility in water [1]: poorly soluble

CCCCCCCCCCCCCCCC1=NC[C@@H](C)O1 [Example 9, 2-pentadecyl-5(R)-methyl-2-oxazoline]
solubility [1]: > 10000 µg/mL
Solubility in water [1]: poorly soluble

CCCCCCCCCCCCCCCC1=NC(C(=O)O)CO1 (centres unmarked) [Example 14b, 2-pentadecyl-4-carboxy-2-oxazoline]
solubility [1]: > 10000 µg/mL
Solubility in water [1]: poorly soluble

CCCCCCCCC=CCCCCCCCC1=NCCO1 [OEA-OXA, 2-(8-heptadecenyl)-2-oxazoline]
solubility [1]: > 10000 µg/mL
Solubility in water [1]: poorly soluble
IC50 [2]: 38.4 ± 0.034 µM

CCCCCCCCCCCCCCCC1=NCCO1 [PEA-OXA, 2-pentadecyl-2-oxazoline]
increase of plantar volume in percentage with respect to carrageenan alone (carrageenan=100) ([3]; 30 min): 88.2 ± 2.0%
increase of plantar volume in percentage with respect to carrageenan alone (carrageenan=100) ([3]; 1 hr): 81.2 ± 2.1%
increase of plantar volume in percentage with respect to carrageenan alone (carrageenan=100) ([3]; 2 hrs): 66.6 ± 0.78%
increase of plantar volume in percentage with respect to carrageenan alone (carrageenan=100) ([3]; 3 hrs): 59.6 ± 0.62%
increase of plantar volume in percentage with respect to carrageenan alone (carrageenan=100) ([3]; 4 hrs): 51.4 ± 0.58%
increase of plantar volume in percentage with respect to carrageenan alone (carrageenan=100) ([3]; 5 hrs): 43.0 ± 0.42%
increase of plantar volume in percentage with respect to carrageenan alone (carrageenan=100) ([3]; 6 hrs): 31.2 ± 0.22%
anti-inflammatory activity with respect to PEA ([3]; rat carrageenan edema, especially between 2 and 5 hours from carrageenan): greater anti-inflammatory activity
solubility [1]: > 10000 µg/mL
Solubility in water [1]: poorly soluble
IC50 [2]: 24.2 ± 0.018 µM

CCCCCCCCCCCCCCCC1=NC(CO)(CO)CO1 [Example 6, 2-pentadecyl-4,4-bis(hydroxymethyl)-2-oxazoline]
solubility [1]: > 10000 µg/mL
Solubility in water [1]: poorly soluble

CCCCCCCCCCCCCCCC1=NCCO1 [PEA-OXLE]
Solubility in ethanol [1]: > 10000 µg/mL
Solubility in water [1]: poorly soluble
IC50 [2]: 32.1 ± 0.031 µM

O=C(CCc1ccccc1)N[C@H]1COC1=O [(S)-N-(2-oxo-3-oxetanyl)-3-phenylpropionamide, reference compound]
IC50 [2]: 0.42 µM

CCCCCCCCCCCCCC(=O)NCCO [MEA, Myristoyl ethanolamide, reference compound]
IC50 [2]: > 50 µM

CCCCCCCCCCCCCCC1=NCCO1 [Example 7, 2-tetradecyl-2-oxazoline]
melting point: 41 to 44 °C
solubility [1]: > 10000 µg/mL
Solubility in water [1]: poorly soluble

CCCCCCCCCCCCCCCC1=NC[C@H](C)O1 [Example 10, 2-pentadecyl-5(S)-methyl-2-oxazoline]
solubility [1]: > 10000 µg/mL
Solubility in water [1]: poorly soluble

CCCCCCCC/C=C\CCCCCCCC(=O)NCCO [OEA, Oleoylethanolamine, reference compound]
IC50 [2]: > 50 µM

CCCCCCCCCCCCCC1=NCCO1 [MEA-OXA, 2-tridecyl-2-oxazoline]
solubility [1]: > 10000 µg/mL
Solubility in water [1]: poorly soluble
IC50 [2]: 41.5 ± 0.032 µM

CCCCCCCCCCCCCCCCCC1=NCCO1 [SEA-OXA, 2-heptadecyl-2-oxazoline]
melting point: 51 to 53 °C
solubility [1]: > 10000 µg/mL
Solubility in water [1]: poorly soluble
IC50 [2]: 35 ± 0.021 µM
